The source of these data is patent US11179344B2, “Nanoparticle-based liver-targeting therapy” (Midatech Limited, priority 2017, dated 2021).

For data set [1], the system named is human hepatocellular carcinoma cell line HepG2. As to the kind of experiment: MTT cell viability assay, Pt / doxorubicin loaded nanoparticles vs free drug. The following applies: concentration based on drug amount, FIG. 7: 72 h after treatment. How it is done: The human hepatocellular carcinoma cell line HepG2 was used in the assay.
HepG2 cells were grown in a T-75 flask. For the transfer of the cell the medium was removed from the flask and the cells were trypsinated for 5 minutes. The cells were collected in a Falcon tube and diluted with complete cell medium. The cell counting was conducted in a Neubauer chamber. A cell solution was prepared to seed 4000 cells per well (200 μL per well). The microtiter plate was incubated for 24 h at 37° C.
For each NP and drug, formulations in cell medium were prepared. The compounds were tested in different concentrations (0.01, 0.05, 0.2, 1, 5, 25 and 125 μM based on drug amount). For the treatment, the cell medium was removed from all wells and exchanged for drug formulations. 200 μl of treatments per triplicate was added to each well. The microtiter plates were incubated for 24 h, 48 h and 72 h at 37° C.
1.5 mL MTT solution (8.0 mg in 1.6 mL DMSO) was diluted with complete cell medium (phenol-red free). The treatment cell medium was removed from the microtiter plate, the wells were washed with 100 μL PBS and 100 μL of the MTT reactive solution was added to each well. After one hour incubation at 37° C. the MTT solution was removed and 100 μL DMSO was added to dissolve the formazan dye. Absorbance was measured at 570 nm.
Data were analysed using OriginPro8. The normalized data were plotted and the curve was fitted using a non-linear regression curve fit (sigmoidal dose-response curve with variable slope). The Absolute IC50 values were obtained by interpolation.
In general terms: Tetrazolium assays rely on reduction of a dye to a coloured formazan, in cell work by metabolically active cells.

Data set [2] concerns subcutaneous BEL7404 hepatocellular cancer xenograft. The data set can be described thus: Anti-tumour efficacy, subcutaneous BEL7404 xenograft model. The format is in vivo, NOD/SCID mice. The following applies: for T/C / Tumour size: day 13; for Tumour size: Mean ± SEM. On the procedure: The in vivo anti-tumour efficacy of MTC-100038 in a subcutaneous BEL7404 hepatocellular cancer xenograft model in NOD/SCID mice was evaluated. Briefly NOD/SCID mice (18-22 g, n=10 per group) were implanted subcutaneously with BEL7404 tumour cells (3×10^6) in 0.1 ml of PBS for tumour development. Group/dosing assignment commenced when tumours reached a pre-determined volume of ˜200 mm^3 subcutaneous tumours.
Tumour size was measured twice weekly, and the volume was expressed in mm^3. The tumour size was then used for calculations of T/C values.

For data set [3], the system named is orthotopic Hep3B-Luc hepatocellular cancer xenograft. As to the kind of experiment: Anti-tumour efficacy, orthotopic HEP3B xenograft model (bioluminescence). The format is in vivo, BALB/c nude mice. As to conditions: for T/C (%) / Bioluminescence: day 21; for Bioluminescence: Mean. How it is done:
The in vivo anti-tumour efficacy of MTC-100038 in an orthotopic hepatocellular cancer xenograft model in BALB/c nude mice was evaluated. Briefly, female BALB/c nude mice (18-23 g, n=10/group), were implanted with approximately 3×10^6 Hep3B-Luc cells mixed with BD Matrigel in 20 μL (PBS:Matrigel=1:1). Animals were selected and randomized (based on their bioluminescence density) on day 7 after tumour implantation to 6 groups using randomized block design based upon their bioluminescence.
The tumour bioluminescence was used for the calculation of T/C value (in percent), where T and C are the mean bioluminescence of the treated and control groups, respectively, on a given day. Statistical analysis of difference in bioluminescence among the groups and the analysis of drug interaction were conducted on the data obtained at the best therapeutic time point after the final dose (the 21st day after the start of treatment).
A one-way ANOVA was performed to compare bioluminescence among groups, and when a significant F-statistics (a ratio of treatment variance to the error variance) was obtained, comparisons between groups were carried out with Games-Howell test with p<0.05 statistically significant.

The nature of data set [4]: Tolerability (body weight change), Hep3B orthotopic xenograft model. As to conditions: daily oral administration for 21 days. The data set is classed as in vivo, BALB/c nude mice. How it is done: The animals in this case were a mouse HCC model with a Hep3B orthotopic xenograft. MTC-100038, DM1, or vehicle were administered I.V. to BALB/c nude mice in 2×5 day cycles (shaded), whilst Sorafenib was administered by daily oral administration for 21 days (dashed line) at a dose of 60 mg/kg, which was the highest tolerated dose in this model. Percentage body weight change was calculated based on animal weight on the first day of dosing. Data points represent percent group mean change in body weight±SEM. Treatment groups were: Vehicle (black circles), Sorafenib 60 mg/kg (squares), free DM1 0.150 mg/kg (triangles), MTC-100038 0.225 mg/kg (green circles), MTC-100038 0.338 mg/kg (diamonds) and MTC-100038 0.450 mg/kg (inverted triangles).

A further data set deals with Hep3B cells. The data set can be described thus: In vitro cytotoxicity, Hep3B. The data set is classed as cell-based, human. An excerpt: A lower bar height indicates higher cytotoxic potency.
(§1) The cytotoxicity of gold nanoparticle constructs GalC2-PEG8COOH-GNP (parent, non-functionalised gold nanoparticle (MTC-100011)), and MTC-100038 were compared to free DM1 drug in the HCC cell lines HEPG2 and HEP3B.

Data set [5] is described as follows: Pharmacokinetics and biodistribution of DM1, subcutaneous Hep3B xenograft model. The format is in vivo, NOD/SCID mouse. As to conditions: no further decline at 48 hours, dosed article not stated. On the procedure:
DM1 tumour concentration (mean±SEM) is shown for MTC-100038-treated (equivalent DM1 dose 0.06 mg/kg) animals (left-hand bars) and free DM1-treated animals (also 0.06 mg/kg dose) (right-hand bars). Time points are 2 hours (solid fill), 24 hours (horizontal lines) and 48 hours (checked pattern).
The in vivo pharmacokinetics and biodistribution of DM1 was studied in the subcutaneous Hep3B human hepatocellular cancer xenograft model (Table 1). The concentration of gold and DM1 in liver and kidney samples was evaluated 2, 24 and 48 hours after the last drug administration.

The test system of data set [6] is HCC cell lines HEPG2 and HEP3B. The data set can be described thus: Cytotoxicity of gold nanoparticle constructs vs free DM1 (text values). The data set is classed as cell-based, human. As to conditions: line for the value not stated.
Excerpt: as §1

A short description of data set [7]: Tolerability (body weight change), mouse model with human HCC xenograft. The format is in vivo. The following applies: I.V., five consecutive days. On the procedure:
The animals in this case were a mouse model with a human HCC xenograft. Animals dosed intravenously (I.V.) for five consecutive days (shaded area left of dotted vertical line) at either a low dose of 0.15 mg/kg of DM1 alone (inverted triangles) or high dose of 0.45 mg/kg DM1 alone (diamonds) or MTC-100038 at equivalent DM1 doses low (circles) and high (squares). Percentage body weight change was calculated based on animal weight on the first day of dosing. Data points represent percent group mean change in body weight±SEM. Body weight change is positive in the MTC-100038 nanoparticle-treated animals, but negative (low dose) or fatal (high dose) in the free DM1-treated animals.
On the technique in general: Xenograft models place foreign cells or tissue in a host animal.

Data set [8] concerns subcutaneous Hep3B hepatocellular cancer xenograft. As to the kind of experiment: Anti-tumour efficacy, subcutaneous HEP3B xenograft model. The data set is classed as in vivo, NOD/SCID mice. The following applies: 0.1125 mg/kg i.v. QD×5, day 13. On the procedure: The in vivo anti-tumour efficacy of MTC-100038 in a subcutaneous Hep3B hepatocellular cancer xenograft model in NOD/SCID mice was evaluated. Briefly NOD/SCID mice (18-22 g, n=10 per group) were implanted subcutaneously with HEP 3B hepatocellular cells (3×10^6) in 0.1 mL PBS for tumour development. Group/dosing assignment commenced when tumours reached a pre-determined volume of ˜200 mm^3 subcutaneous tumours (n=10 per group). Tumour size was measured twice weekly, and the volume was expressed in mm^3. The tumour size was then used for calculations of T/C values. The T/C value (in percent) is an indication of anti-tumour effectiveness (optimally, a test article is considered to have anti-tumour activity when T/C is 50% or less); T and C are the mean volumes of the treated and control groups, respectively, on a given day.

Another data set has as its system BEL7404. The data set can be described thus: In vitro cytotoxicity, BEL7404. The data set is classed as cell-based.
A further data set has as its system HCC cells. As to the kind of experiment: In vitro targeting of GNPs to HCC cells (counts per field). The data set is classed as cell-based. The following applies: relative to base GNP lacking the peptide. An excerpt:
(SEQ ID NO: 1), via its N-terminus (approx. 4 peptide molecules per nanoparticle).
Several base/peptide targeted GNPs were screened in vitro. GNPs having a mixed corona comprising galactose-C2-SH (Gal-C2) ligands and HSPEG8COOH were synthesised according to methodology analogous to that described above in Examples 1 and 2, with however galactose-C2-SH replacing glucose-C2-SH and HSPEG8COOH (also abbreviated SH-EG8-COOH or SH—(OCH2CH2)8—COOH) replacing the amino linker NH2-EG6-SH.
The glypican-3 peptide described in U.S. Pat. No. 8,388,937B2 (the contents of which are expressly incorporated herein by reference)—see SEQ ID NO: 1 thereof, which has the amino acid sequence: […] (SEQ ID NO: 1) was linked to the terminal COOH group of a proportion of the HSPEG8COOH ligands via the N-terminus of said peptide. In a “high loading” GNP construct (see row 1 in the table below), approximately 4 peptides were linked per nanoparticle core. The “high loading” Au@Gal-C2:HSPEG8COOH:HSPEG8CONH[…] The “low loading” Au@Gal-C2:HSPEG8COOH:HSPEG8CONH[…]

Where [9] appears, read: 0.15 mg/kg i.v. QD×5 (D0-4) + QD×5 (D8-12).

On to platinum-(IV)-succinate, for which the IC50 in data set [1] and in [1] (listed as Pt(IV)-succinate) was 38600 nM throughout.
On to `CNC(=O)c1cc(Oc2ccc(NC(=O)Nc3ccc(Cl)c(C(F)(F)F)c3)cc2)ccn1` [Sorafenib], for which, in [2] (60 mg/kg over 21 days), the “anti-tumour activity compared to vehicle” value is “significant tumour growth inhibition”. Besides, in [2] (60 mg/kg p.o. QD×21), the T/C amounted to 41.9% and the Tumour size was found to be 984 ± 64 mm^3. Further, the “anti-tumour activity compared with vehicle group” value in [3] (60 mg/kg) is “significant anti-tumour activity”. For the same molecule, in data set [3] (60 mg/kg p.o. QD×21), the “T/C (%)” value is on record as 22.3% and the Bioluminescence amounted to 3.24E+09 photons/s. For the same molecule, the Bioluminescence in [3] (60 mg/kg p.o. QD×21, listed as sorafenib) is 3.24×10^9 photons/s. In data set [4], this molecule had a highest tolerated dose of 60 mg/kg.
On to `COc1cc2cc(c1Cl)N(C)C(=O)C[C@H](OC(=O)[C@H](C)N(C)C(=O)CCS)[C@]1(C)O[C@H]1[C@H](C)[C@@H]1C[C@@](O)(NC(=O)O1)[C@H](OC)/C=C/C=C(\C)C2` [DM1, maytansinoid DM1], for which the IC50 was 11 nM in the data set on Hep3B cells, 4.15 nM in data set [6] and 9 nM in the data set on BEL7404. Also, in data set [5], the “decline of DM1 concentration in the tumour between 2 and 24 hours” value is “about 40%”. Also, in [2] (0.15 mg/kg), the “anti-tumour activity compared to vehicle” value is “no anti-tumour activity”. For the same molecule, the T/C in data set [2] (setting [9]) was 113.2%; in data set [8], 78.9%. For the same molecule, the Tumour size in [2] (setting [9]) turned out to be 2656 ± 180 mm^3; in data set [8] (Mean ± SEM) it was 1217 ± 254 mm^3. For the same molecule, the “body weight change, low dose” value in data set [7] (0.15 mg/kg DM1 or equivalent DM1 dose) is recorded as “negative”. Also, the “body weight change, high dose” value in data set [7] (0.45 mg/kg DM1 or equivalent DM1 dose) is listed as “fatal”. The “anti-tumour activity compared with vehicle group” value in [3] (0.15 mg/kg) is “no anti-tumour activity”. In addition, the “T/C (%)” value in data set [3] (setting [9]) was determined as 83.4%. Besides, the Bioluminescence in data set [3] (setting [9]) is on record as 1.21E+10 photons/s.
As for `COc1cccc2c1C(=O)c1c(O)c3c(c(O)c1C2=O)C[C@@](O)(C(=O)CO)C[C@@H]3O[C@H]1C[C@H](N)[C@H](O)[C@H](C)O1` [Doxorubicin, doxorubicin], the midpoint of inhibition in data set [1] (Homo sapiens), the IC50, lay at 60 nM.
Regarding GNP-GalC2(50)-AL(50)-(Ac)YFLTTRQ, the “Fold-targeting (over base particle)” value in the data set with HCC cells is given as 5.0 fold; with HCC cells (listed as Au@GalC2:AL:AL-(Ac)-YFLTTRQ), “approximately 5 fold”.

A word on the IC50: it is the concentration that gives 50% inhibition. Usually T/C stands for the result in the treated group divided by that in the control group, in per cent.
